TGI and GI50 data for seven molecules are collected here from PubChem BioAssay (NCI).

Where “and” joins values, the source holds several entries; their conditions need not be identical. Equal entries are not always repeated.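 The compound was tested at five concentrations on cells cultured in 96-well plates, with a 48-hour exposure period. The concentration for 50% growth inhibition is given as GI50. The concentration for full growth arrest is given as TGI.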

What all share (assay): NCI anticancer screen, dose series, 48 h
The test system of experiment [1] is A549 NSCLC.
In experiment [2] the test system is HCC-2998 colon.
Experiment [3] relates to HL-60(TB) leukemia.
Experiment [4] has as its system M14 melanoma.
Experiment [5] relates to OVCAR-3 ovarian.
Experiment [6] concerns SF-295 CNS.
In experiment [7] the test system is SF-539 CNS.
In experiment [8] the test system is SK-MEL-2 melanoma.
Experiment [9] relates to TK-10 renal.
In experiment [10] the test system is U251 CNS.

As to `CCN(CC)CCC(=O)O[C@H]1CC[C@H](CC(C)[C@H]2CC(=O)C(C)C=C(C)[C@H](OC(=O)CCN(CC)CC)C(OC)C(=O)[C@@H](C)CC(C)/C=C/C=C/C=C(C)C(OC)CC3CC[C@H](C)[C@](O)(O3)C(=O)C(=O)N3CCCCC3C(=O)O2)CC1OC` (stereo partly drawn), the TGI in [1] is 7540 nM and 9530 nM; in experiment [2], 2290 nM and 2040 nM; in [3], 4480 nM and 1160 nM; in [4], 2620 nM and 2200 nM; in [5], 2270 nM and 2190 nM; in experiment [6] it was 1460 nM and 1980 nM. Further, the TGI in experiment [7] is 1990 nM and 1810 nM; in [8] it was 1910 nM; in experiment [9], 6120 nM and 4250 nM; in experiment [10], 2340 nM and 1900 nM. Also, the GI50 in experiment [2] was 1030 nM; in experiment [3], 1830 nM and 345 nM; in [4] it was 871 nM; in experiment [5], 16.5 nM and 4.56 nM; in experiment [6] it was 1.6 nM; in [8], 359 nM. The results for the GI50 in experiment [9] and in experiment [10] were 1400 nM and 1130 nM, respectively.
For `Nc1ccc(C2=Nc3ccccc3SC(c3ccccc3O)C2)cc1` (stereo not drawn), the TGI in experiment [1] is greater than 100000 nM; in [2] it was greater than 100000 nM; in experiment [3], 62700 nM; in experiment [4], greater than 100000 nM; in [5], greater than 100000 nM; in experiment [6] it was greater than 100000 nM. Besides, the TGI in [7], in [8], in experiment [9] and in [10] was greater than 100000 nM in each case.
Turning to `COc1ccc(/C=N\O[Si](C)(C)C(C)(C)C)cc1O[Si](C)(C)C(C)(C)C`, the TGI came out at 34900 nM in [1]; 32900 nM in experiment [2]; 38100 nM in experiment [3]; 36300 nM in experiment [4]; 31000 nM in experiment [5]; 30900 nM in [6]. Besides, the TGI in [7] was determined as 37900 nM; in experiment [8], 31500 nM; in experiment [9], 36300 nM; in experiment [10], 36000 nM.
For the molecule `COC1C(O)C(C)OC(O[C@@H]2C[C@H]3CC[C@@H]4[C@H](CC[C@]5(C)[C@@H](C6=CC(=O)OC6)CC[C@]45O)[C@@]3(C)[C@H](O)C2)C1O` (stereo partly drawn), the TGI is less than 46.2 nM in [1]; 2690 nM in [2]; 145 nM in [3]; 252 nM in experiment [4]; 83.8 nM in experiment [5]; 321 nM in experiment [6]. For the same molecule, the TGI in [7] worked out at 24.9 nM; in experiment [8], 1700 nM; in experiment [9] it was 896 nM; in [10], 12500 nM.
For the molecule `O=C(CC(=O)C1CCOC1=O)C(=O)Nc1ccc(Cl)cc1` (stereo not drawn), the TGI in experiment [1], in experiment [2], in [3], in experiment [4], in experiment [5] and in [6] was greater than 100000 nM in each case. Also, the TGI in experiment [7], in [8], in [9] and in experiment [10] was greater than 100000 nM throughout.
In the case of `O=C1C=C(OCCCl)C(=O)c2c(O)ccc(O)c21`, the GI50 in experiment [1] is 1630 nM; in experiment [2], 1120 nM; in [3] it was 230 nM; in experiment [4], 741 nM; in [5], 286 nM; in experiment [6], 2440 nM. The GI50 was 1580 nM in [7], 2100 nM in experiment [8], 3000 nM in experiment [9] and 2760 nM in [10]. The TGI in [1] is 686 nM and 3410 nM; in experiment [2], 3030 nM and 2470 nM; in experiment [3], 2580 nM and 1170 nM; in experiment [4], 320 nM and 2190 nM; in experiment [5] it was 2330 nM and 1080 nM; in experiment [6], 3000 nM and 4530 nM. Also, the TGI was 2820 nM and 2930 nM in experiment [7]; 1400 nM and 4390 nM in experiment [8]; 5550 nM and 6830 nM in experiment [9]; 3330 nM and 7480 nM in experiment [10].
Take `C=C1C(=O)O[C@H]2[C@H]1CC/C(CNC(=O)/C=C/c1ccc(Cl)cc1Cl)=C\CC[C@@]1(C)O[C@@H]21`: the GI50 in experiment [1] is 2120 nM; in [2] it was 1560 nM; in [3] it was 25.6 nM; in experiment [4], 1440 nM; in [5] it was 434 nM; in [6], 1620 nM. The GI50 in experiment [7] was 1530 nM; in experiment [8], 1550 nM; in experiment [9], 1550 nM; in experiment [10] it was 1650 nM. Besides, the TGI in experiment [1] turned out to be 5460 nM; in [2], 2980 nM; in [3], 542 nM; in experiment [4], 3370 nM; in experiment [5], 1570 nM; in experiment [6], 3830 nM. Further, the TGI in experiment [7] was 3170 nM; in experiment [8], 3630 nM; in experiment [9], 2900 nM; in experiment [10], 3140 nM.
